Results taken from ChEMBL document CHEMBL1201862, “PubChem BioAssay data set” (2004).
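Five compound concentrations were applied to cells in 96-well plates for 48 hours; endpoints were derived by simple linear interpolation of the resulting dose-response curve. GI50 is the concentration that inhibits growth by half.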 Calls of active or inactive are those of the source. Rule as the data show it: active = GI50 up to about 1.1 µM and inactive = higher.

How the values were obtained:
Assay in all cases: NCI anticancer screen, dose series, 48 h
786-0 = test system: 786-0
A498 = test system: A498
A549 = test system: A549
ACHN = test system: ACHN
CAKI-1 = test system: CAKI-1
CCRF-CEM = test system: CCRF-CEM
COLO 205 = test system: COLO 205
DLD-1 = test system: DLD-1
DMS-114 = test system: DMS-114
DMS-273 = test system: DMS-273
EKVX = test system: EKVX
HCC 2998 = test system: HCC 2998
HCT-116 = test system: HCT-116
HCT-15 = test system: HCT-15
HL-60 = test system: HL-60
HOP-18 = test system: HOP-18
HOP-62 = test system: HOP-62
HOP-92 = test system: HOP-92
HT-29 = test system: HT-29
IGROV-1 = test system: IGROV-1
K562 = test system: K562
KM-20L2 = test system: KM-20L2
KM12 = test system: KM12
LOX IMVI = test system: LOX IMVI
LXFL 529 = test system: LXFL 529
M14 = test system: M14
M19-MEL = test system: M19-MEL
MOLT-4 = test system: MOLT-4
Malme-3M = test system: Malme-3M
NCI-H226 = test system: NCI-H226
NCI-H23 = test system: NCI-H23
NCI-H460 = test system: NCI-H460
NCI-H522 = test system: NCI-H522
OVCAR-3 = test system: OVCAR-3
OVCAR-4 = test system: OVCAR-4
OVCAR-5 = test system: OVCAR-5
OVCAR-8 = test system: OVCAR-8
RPMI-8226 = test system: RPMI-8226
RXF 393 = test system: RXF 393
SF-268 = test system: SF-268
SF-295 = test system: SF-295
SF-539 = test system: SF-539
SK-MEL-28 = test system: SK-MEL-28
SK-MEL-2 = test system: SK-MEL-2
SK-MEL-5 = test system: SK-MEL-5
SK-OV-3 = test system: SK-OV-3
SN12C = test system: SN12C
SNB-19 = test system: SNB-19
SNB-75 = test system: SNB-75
SNB-78 = test system: SNB-78
SR = test system: SR
TK-10 = test system: TK-10
U-251 = test system: U-251
UACC-257 = test system: UACC-257
UACC-62 = test system: UACC-62
UO-31 = test system: UO-31
XF498 = test system: XF498
BT-549 = test system: BT-549
DU-145 = test system: DU-145
Hs-578T = test system: Hs-578T
MCF7 = test system: MCF7
MDA-MB-231 = test system: MDA-MB-231
MDA-MB-435 = test system: MDA-MB-435
MDA-N = test system: MDA-N
NCI/ADR-RES = test system: NCI/ADR-RES
PC-3 = test system: PC-3
SW-620 = test system: SW-620
T47D = test system: T47D

For CCOC(OC1=C(C#N)CCCC1)C(CC)[Se]c1ccccc1[N+](=O)[O-] (stereo not given), the GI50 (786-0) was 17.8 µM (inactive), the GI50 (A498) was > 100 µM (inactive) and the GI50 (A549) was 57.5 µM (inactive). For the same compound, the GI50 (ACHN) was 29.1 µM (inactive), the GI50 (CAKI-1) was > 100 µM (inactive) and the GI50 (CCRF-CEM) was 20.6 µM (inactive). The GI50 (COLO 205) was 29.6 µM (inactive), the GI50 (DLD-1) was 17.9 µM (inactive) and the GI50 (DMS-114) was 15.7 µM (inactive). For the same compound, the GI50 (DMS-273) was 20.9 µM (inactive), the GI50 (EKVX) was 30.8 µM (inactive) and the GI50 (HCC 2998) was 17.7 µM (inactive). The GI50 (HCT-116) was 19.4 µM (inactive), the GI50 (HCT-15) was 18.5 µM and the GI50 (HL-60) was 17.1 µM (inactive). The GI50 (HOP-18) was 26.5 µM (inactive), the GI50 (HOP-62) was 32.1 µM (inactive) and the GI50 (HOP-92) was 18.4 µM (inactive). The GI50 (HT-29) was 16.8 µM (inactive), the GI50 (IGROV-1) was 23.9 µM (inactive) and the GI50 (K562) was 33.6 µM (inactive). For the same compound, the GI50 (KM-20L2) was 17.2 µM (inactive), the GI50 (KM12) was 21.1 µM (inactive) and the GI50 (LOX IMVI) was 16 µM (inactive). The GI50 (LXFL 529) was 26.5 µM (inactive), the GI50 (M14) was 17.9 µM (inactive) and the GI50 (M19-MEL) was 19.1 µM (inactive). For the same compound, the GI50 (MOLT-4) was 25.6 µM (inactive), the GI50 (Malme-3M) was 22.8 µM (inactive) and the GI50 (NCI-H226) was 17.7 µM (inactive). For the same compound, the GI50 (NCI-H23) was 16.7 µM (inactive), the GI50 (NCI-H460) was 34.2 µM (inactive) and the GI50 (NCI-H522) was 16.3 µM (inactive). For the same compound, the GI50 (OVCAR-3) was 26.5 µM (inactive), the GI50 (OVCAR-4) was 17.9 µM (inactive) and the GI50 (OVCAR-5) was 31.4 µM (inactive). The GI50 (OVCAR-8) was 24 µM (inactive), the GI50 (RPMI-8226) was 19.5 µM (inactive) and the GI50 (RXF 393) was 28.8 µM (inactive). For the same compound, the GI50 (SF-268) was 23 µM (inactive), the GI50 (SF-295) was 22.2 µM (inactive) and the GI50 (SF-539) was 20 µM (inactive). For the same compound, the GI50 (SK-MEL-28) was 34 µM (inactive), the GI50 (SK-MEL-2) was 21 µM (inactive) and the GI50 (SK-MEL-5) was 15.1 µM (inactive). For the same compound, the GI50 (SK-OV-3) was 63.8 µM (inactive), the GI50 (SN12C) was 19.6 µM (inactive) and the GI50 (SNB-19) was 29 µM (inactive). For the same compound, the GI50 (SNB-75) was 21.9 µM (inactive), the GI50 (SNB-78) was 25.5 µM (inactive) and the GI50 (SR) was 16.7 µM (inactive). For the same compound, the GI50 (TK-10) was 76.2 µM (inactive), the GI50 (U-251) was 16.6 µM (inactive) and the GI50 (UACC-257) was > 100 µM (inactive). For the same compound, the GI50 (UACC-62) was 22 µM (inactive), the GI50 (UO-31) was 26.8 µM (inactive) and the GI50 (XF498) was 30.2 µM (inactive).
For CCCCCCCCCCCC(=O)OC[C@H](C[As](=O)(O)O)OC(=O)CCCCCCCCCCC, the GI50 (786-0) was 13.2 µM (inactive), the GI50 (A498) was 6.31 µM (inactive) and the GI50 (A549) was 6.92 µM (inactive). The GI50 (ACHN) was 2.79 µM (inactive), the GI50 (BT-549) was 3.84 µM (inactive) and the GI50 (CAKI-1) was 8.55 µM (inactive). For the same compound, the GI50 (CCRF-CEM) was 13.7 µM (inactive), the GI50 (COLO 205) was 19.4 µM (inactive) and the GI50 (DLD-1) was 13.2 µM (inactive). The GI50 (DMS-114) was 1.95 µM (inactive), the GI50 (DMS-273) was 3.98 µM (inactive) and the GI50 (DU-145) was 17.3 µM (inactive). The GI50 (EKVX) was 10.2 µM (inactive), the GI50 (HCC 2998) was 8.13 µM (inactive) and the GI50 (HCT-116) was 8.89 µM (inactive). For the same compound, the GI50 (HCT-15) was 8.26 µM, the GI50 (HL-60) was 3.05 µM (inactive) and the GI50 (HOP-18) was 7.29 µM (inactive). The GI50 (HOP-62) was 14.8 µM (inactive), the GI50 (HOP-92) was 1.75 µM (inactive) and the GI50 (HT-29) was 8.02 µM (inactive). The GI50 (Hs-578T) was 2.78 µM (inactive), the GI50 (IGROV-1) was 1.9 µM (inactive) and the GI50 (K562) was 4.89 µM (inactive). The GI50 (KM-20L2) was 6.04 µM (inactive), the GI50 (KM12) was 8.11 µM (inactive) and the GI50 (LOX IMVI) was 8.79 µM (inactive). For the same compound, the GI50 (LXFL 529) was 3.82 µM (inactive), the GI50 (M14) was 2.62 µM (inactive) and the GI50 (M19-MEL) was 8.18 µM (inactive). For the same compound, the GI50 (MCF7) was 8.75 µM (inactive), the GI50 (MDA-MB-231) was 3.81 µM (inactive) and the GI50 (MDA-MB-435) was 2.64 µM (inactive). The GI50 (MDA-N) was 4.34 µM (inactive), the GI50 (MOLT-4) was 6.14 µM (inactive) and the GI50 (Malme-3M) was 2.3 µM (inactive). The GI50 (NCI-H226) was 14.8 µM (inactive), the GI50 (NCI-H23) was 5.98 µM (inactive) and the GI50 (NCI-H460) was 4.79 µM (inactive). The GI50 (NCI-H522) was 2.25 µM (inactive), the GI50 (NCI/ADR-RES) was 14.1 µM (inactive) and the GI50 (OVCAR-3) was 5.92 µM (inactive). For the same compound, the GI50 (OVCAR-4) was 17.7 µM (inactive), the GI50 (OVCAR-5) was 18.2 µM (inactive) and the GI50 (OVCAR-8) was 13 µM (inactive). For the same compound, the GI50 (PC-3) was 2.9 µM (inactive), the GI50 (RPMI-8226) was 6.03 µM (inactive) and the GI50 (RXF 393) was 1.92 µM (inactive). The GI50 (SF-268) was 8.13 µM (inactive), the GI50 (SF-295) was 13.4 µM (inactive) and the GI50 (SF-539) was 14.2 µM (inactive). The GI50 (SK-MEL-28) was 3.94 µM (inactive), the GI50 (SK-MEL-2) was 2.68 µM (inactive) and the GI50 (SK-MEL-5) was 1.99 µM (inactive). For the same compound, the GI50 (SK-OV-3) was 14.7 µM (inactive), the GI50 (SN12C) was 3.73 µM (inactive) and the GI50 (SNB-19) was 5.93 µM (inactive). The GI50 (SNB-75) was 7.4 µM (inactive), the GI50 (SNB-78) was 2.94 µM (inactive) and the GI50 (SR) was 9.68 µM (inactive). The GI50 (SW-620) was 14.4 µM (inactive), the GI50 (T47D) was 15.3 µM (inactive) and the GI50 (TK-10) was 3.87 µM (inactive). For the same compound, the GI50 (U-251) was 2.36 µM (inactive), the GI50 (UACC-257) was 11 µM (inactive) and the GI50 (UACC-62) was 2.3 µM (inactive). The GI50 (UO-31) was 16 µM (inactive) and the GI50 (XF498) was 10.1 µM (inactive).
